From PubChem BioAssay (NCI)
Where “and” joins values, the source holds several entries; their conditions need not be identical. Equal values may be shown once.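 Results reflect a 48-hour exposure of cells in 96-well plates to compound at five concentrations. Abbreviation: GI50, concentration required for 50% inhibition of growth. Definition used: TGI = concentration required for complete inhibition of growth.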

Assays:
Assay in all cases: NCI tumour cell line growth inhibition, 48 h
[1] = tested on: SR leukemia
[2] = tested on: MDA-MB-435
[3] = tested on: BT-549 breast
[4] = tested on: TK-10 renal
[5] = tested on: HCT-116 colon
[6] = tested on: P388/ADR leukemia
[7] = tested on: T-47D breast
[8] = tested on: MDA-N
[9] = tested on: ACHN renal
[10] = tested on: PC-3 prostate
[11] = tested on: MALME-3M melanoma
[12] = tested on: MOLT-4 leukemia
[13] = tested on: NCI-H226 lung
[14] = tested on: HOP-18 NSCLC
[15] = tested on: DU-145 prostate
[16] = tested on: 786-0 renal
[17] = tested on: SF-539 CNS
[18] = tested on: CAKI-1 renal
[19] = tested on: NCI-H23 lung
[20] = tested on: P388 leukemia
[21] = tested on: DMS 114 small cell lung
[22] = tested on: SNB-19 CNS
[23] = tested on: MDA-MB-231 breast
[24] = tested on: UO-31 renal
[25] = tested on: M14 melanoma
[26] = tested on: NCI-H460 lung
[27] = tested on: A498 renal
[28] = tested on: KM12 colon
[29] = tested on: HL-60(TB) leukemia
[30] = tested on: U251 CNS
[31] = tested on: RPMI-8226 leukemia
[32] = tested on: SW-620 colon
[33] = tested on: A549 NSCLC
[34] = tested on: HOP-92 NSCLC
[35] = tested on: HOP-62 NSCLC
[36] = tested on: CCRF-CEM leukemia
[37] = tested on: SK-MEL-5 melanoma
[38] = tested on: OVCAR-4 ovarian
[39] = tested on: OVCAR-8 ovarian
[40] = tested on: HCC-2998 colon
[41] = tested on: HT29 colon
[42] = tested on: UACC-62 melanoma
[43] = tested on: HCT-15 colon
[44] = tested on: EKVX NSCLC
[45] = tested on: LOX IMVI melanoma
[46] = tested on: OVCAR-3 ovarian
[47] = tested on: LXFL 529 NSCLC
[48] = tested on: RXF 393 renal
[49] = tested on: SF-268 CNS
[50] = tested on: M19-MEL melanoma
[51] = tested on: SF-295 CNS
[52] = tested on: SNB-78 CNS
[53] = tested on: DLD-1 colon
[54] = tested on: UACC-257 melanoma
[55] = tested on: IGROV1 ovarian
[56] = tested on: OVCAR-5 ovarian
[57] = tested on: SK-MEL-28 melanoma
[58] = tested on: SK-MEL-2 melanoma
[59] = tested on: K-562 leukemia
[60] = tested on: KM20L2 colon
[61] = tested on: NCI-H522 lung
[62] = tested on: DMS 273 small cell lung
[63] = tested on: RXF-631 renal
[64] = tested on: SNB-75 CNS
[65] = tested on: XF 498 CNS
[66] = tested on: MCF7 breast
[67] = tested on: SN12C renal
[68] = tested on: HS 578T breast

SMILES: C[C@@H]1O[C@@H](O[C@H]2CC[C@]3(C=O)[C@H]4CC[C@]5(C)[C@@H](c6ccc(=O)oc6)CC[C@]5(O)[C@@H]4CC[C@]3(O)C2)[C@H](O)[C@H](O)[C@H]1O[C@@H]1O[C@H](CO)[C@@H](O)[C@H](O)[C@H]1O
- TGI [1]: 868 nM
- GI50 [2]: 26.1 nM
- TGI [2]: 34.4 nM and 62 nM
- GI50 [3]: 25.2 nM
- TGI [3]: 28.5 nM and 70.1 nM
- GI50 [4]: 13.2 nM
- TGI [4]: 16 nM and 56.9 nM
- TGI [5]: 35.8 nM and 19.4 nM
- TGI [6]: 355000 nM
- GI50 [7]: 24 nM
- TGI [7]: 46.5 nM and 56.4 nM
- GI50 [8]: 17.3 nM
- TGI [8]: 59.5 nM and 33.3 nM
- TGI [9]: 19.5 nM and 23.3 nM
- GI50 [10]: 17.8 nM
- TGI [10]: 28.5 nM and 33.6 nM
- GI50 [11]: 14.2 nM and 20.6 nM
- TGI [11]: 34.3 nM and 47.7 nM
- TGI [12]: 14.4 nM and 70.8 nM
- GI50 [13]: 40.9 nM
- TGI [13]: 57.6 nM and 43.7 nM and 93.3 nM
- TGI [14]: 21.9 nM
- GI50 [15]: 12.9 nM
- TGI [15]: 8.37 nM and 42.4 nM
- TGI [16]: 16.4 nM and 17.4 nM
- TGI [17]: 21 nM and 24.5 nM
- GI50 [18]: 37.5 nM
- TGI [18]: 32.2 nM and 25.1 nM and 37.9 nM
- GI50 [19]: < 0.000375 nM
- TGI [20]: 176000 nM
- GI50 [21]: < 0.000375 nM
- GI50 [22]: 30.1 nM and 37.5 nM
- TGI [22]: 141 nM and 118 nM and 64.3 nM
- TGI [23]: 129 nM
- GI50 [24]: 37.5 nM
- TGI [24]: 51.2 nM and 47.9 nM
- GI50 [25]: 30.4 nM
- TGI [25]: 48.3 nM and 125 nM

SMILES: CC1(C)C2CCC3(OCCO3)C1C(O)C2 (stereo not given)
- TGI [26]: > 100000 nM
- TGI [27]: > 100000 nM
- TGI [28]: > 100000 nM
- TGI [29]: > 100000 nM
- TGI [30]: > 100000 nM
- TGI [31]: > 100000 nM
- TGI [32]: > 100000 nM
- TGI [4]: > 100000 nM
- TGI [33]: > 100000 nM
- TGI [5]: > 100000 nM
- TGI [34]: > 100000 nM
- TGI [35]: > 100000 nM
- TGI [36]: > 100000 nM
- TGI [37]: > 100000 nM
- TGI [38]: > 100000 nM
- TGI [39]: > 100000 nM
- TGI [9]: > 100000 nM
- TGI [40]: > 100000 nM
- TGI [41]: > 100000 nM
- TGI [42]: > 100000 nM
- TGI [43]: > 100000 nM
- TGI [44]: > 100000 nM
- TGI [45]: > 100000 nM
- TGI [11]: > 100000 nM
- TGI [12]: > 100000 nM
- TGI [13]: > 100000 nM
- TGI [46]: > 100000 nM
- TGI [14]: > 100000 nM
- TGI [47]: > 100000 nM
- TGI [48]: > 100000 nM
- TGI [49]: > 100000 nM
- TGI [50]: > 100000 nM
- TGI [16]: > 100000 nM
- TGI [51]: > 100000 nM
- TGI [52]: > 100000 nM
- TGI [53]: > 100000 nM
- TGI [54]: > 100000 nM
- TGI [55]: > 100000 nM
- TGI [56]: > 100000 nM
- TGI [57]: > 100000 nM
- TGI [58]: > 100000 nM
- TGI [59]: > 100000 nM
- TGI [60]: > 100000 nM
- TGI [17]: > 100000 nM
- TGI [18]: > 100000 nM
- TGI [61]: > 100000 nM
- TGI [19]: > 100000 nM
- TGI [62]: > 100000 nM
- TGI [22]: > 100000 nM
- TGI [63]: > 100000 nM
- TGI [64]: > 100000 nM
- TGI [24]: > 100000 nM
- TGI [25]: > 100000 nM
- TGI [65]: > 100000 nM

SMILES: C=C1CC2CC[C@@]34CC5O[C@@H]6C(O[C@H]7CC[C@H](CC(=O)OC8C(C)C9OC%10C[C@]%11(C[C@@H]%12O[C@]%13(CC(C)[C@@H]%14O[C@H](C(O)CC(O)CO)C[C@@H]%14O%13)CC(C)[C@@H]%12O%11)OC%10CC9O[C@H]8C[C@H]8OC(CC[C@@H]1O2)C[C@@H](C)C8=C)OC7[C@@H]6O3)[C@H]5O4 (stereo not given in full)
- GI50 [1]: 0.0153 nM
- TGI [27]: 32.1 nM and 6.79 nM
- TGI [2]: 0.511 nM
- TGI [3]: 2690 nM
- TGI [32]: 2550 nM
- TGI [4]: 16800 nM
- TGI [33]: 2550 nM and 1650 nM
- TGI [6]: 8.46 nM
- GI50 [34]: 15.6 nM and 6.03 nM
- TGI [66]: 2550 nM and 21400 nM
- TGI [7]: 5320 nM
- GI50 [8]: 0.0269 nM and 0.151 nM
- TGI [8]: 0.756 nM and 2.65 nM
- TGI [38]: 838 nM and 2420 nM
- TGI [9]: 1280 nM
- GI50 [10]: 0.886 nM
- TGI [44]: 2850 nM
- TGI [67]: 2550 nM and 6410 nM
- TGI [13]: 7.09 nM and 7.25 nM and 21.7 nM
- TGI [49]: 2550 nM and 1470 nM
- TGI [16]: 1220 nM
- GI50 [52]: 0.255 nM
- TGI [52]: 2550 nM
- GI50 [53]: 0.255 nM
- TGI [53]: 2550 nM
- GI50 [68]: 0.182 nM
- TGI [56]: 7.64 nM
- GI50 [57]: 1.01 nM
- TGI [58]: 9.31 nM and 4.34 nM
- TGI [60]: 1.67 nM
- TGI [17]: 4.2 nM and 3.72 nM and 1.3 nM
- TGI [18]: 464 nM and 1540 nM
- TGI [61]: 0.7 nM and 0.489 nM and 0.304 nM
- GI50 [21]: 0.255 nM
- TGI [21]: 5.54 nM and 8.56 nM
- TGI [22]: 1820 nM
- GI50 [23]: 2.67 nM
- TGI [24]: 2460 nM
